In PubChem BioAssay AID493102 (Broad Institute, 2011):

tested on: SK-MEL-5 TRPM1-promoter luciferase reporter, 24 h; experiment: TRPM1 promoter luciferase signal decrease, dose response, MITF inhibitor project, cell-based, SK-MEL-5, cherry-picked, set 4 (AID 493102);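 note: actives lower the luciferase signal so the potency reflects inhibition of reporter expression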

| Compound | AC50 |
| --- | --- |
| N/C(=N\OC(=O)c1ccccc1)c1ccccn1 | 11.9 µM |
| COc1ccc2[nH]cc(C(=O)CCl)c2c1 | 5.65 µM |
| CCOC(=O)N1C(=O)[C@@](CC)(c2ccccc2)N1C(=O)OCC | 12.5 µM |
| CC(C)c1oc(=O)cc2c1[C@@H](O)[C@H]1OC(=O)[C@@]3(C)C[C@@H](O)[C@@H](O)[C@@]2(C)C13 (stereo partly drawn) | 1.63 µM |
| CCOc1ccc(-c2ccc(SC)nn2)cc1 | 5.17 µM |
| Cc1c(C#N)c(NC(=O)CCl)n(Cc2ccc(F)cc2)c1C | 7.16 µM |
| CC(=O)c1ccc(Sc2nnnn2-c2ccccc2)c([N+](=O)[O-])c1 | 7.82 µM |
| CCN1CCc2c(sc(NC(=O)c3ccc(S(=O)(=O)N4CCCCCC4)cc3)c2C(=O)NC)C1 | 16.6 µM |
| COc1cc(C(=O)N/N=C(\c2ccccc2)c2ccccn2)cc(OC)c1OC | 13.8 µM |
| CCOc1ccc(OCc2ccc(C(=O)N/N=C(\C)c3ccccn3)cc2)cc1 | 3.64 µM |
| CC(C)C(CCNC1CCN(C)CC1)c1ccc(Cl)cc1 (stereo not drawn) | 11.9 µM |
| CCOC(=O)COc1ccc2ccccc2c1/C=C/[N+](=O)[O-] | 8.17 µM |
| CCN1/C(=C/c2cc[n+](C)cc2)C=Cc2cc(C)ccc21 | 1.74 µM |
| CC(C)N=C(NS(=O)(=O)c1ccccc1)C(Cl)(Cl)Cl | 6.76 µM |
| Cc1cccc(/C=C2/Sc3ccc(C(=O)NCCN4CCCC4)cc3NC2=O)c1 | 18.4 µM |
| O=C(N/N=C/c1ccc([N+](=O)[O-])s1)c1ccccc1 | 2.29 µM |
| O=C(O)c1ccc(Nc2nc3c(s2)CCCC3)cc1 | 6.49 µM |
| CCCCCn1c(=O)c(C(=O)Nc2cnccn2)c(O)c2ccccc21 | 5.93 µM |
| CCOc1ccc(/C=C2\SC(=S)N(CCC(=O)O)C2=O)cc1 | 0.577 µM |
| Cc1cc(C(=O)COc2cccnc2[N+](=O)[O-])c(C)n1-c1ccccc1 | 1.48 µM |
| COc1ccc(C(=O)N/N=C/c2cc(Br)ccc2O)cc1OC | 4.76 µM |
| CN(C)S(=O)(=O)c1ccc(-c2csc(N/N=C/c3ccco3)n2)cc1 | 3.9 µM |
| COc1ccc(NC(C)C(=O)N/N=C/c2ccc([N+](=O)[O-])s2)cc1 (stereo not drawn) | 15.8 µM |

| Compound | AC50 |
| --- | --- |
| O=C(Nc1ccccc1N1CCOCC1)c1ccc([N+](=O)[O-])s1 | 12.3 µM |
| N#CC(C#N)=C1C=CC=CN1/C(=C\c1ccco1)C(=O)c1ccc(Br)cc1 | 5.59 µM |
| CC(C)N1C(=O)/C(=C/C=C/c2ccco2)C(=O)N(Cc2ccco2)C1=O | 9.97 µM |
| O=C(O)CSCC(=O)Nc1ccc(C2CCCCC2)cc1 | 2.12 µM |
| C=CCNC1=C(Cl)C(=O)c2ccccc2C1=O | 4.06 µM |
| COc1cc(NC(=O)COc2ccccc2[N+](=O)[O-])ccc1NC(=O)c1cccs1 | 10.1 µM |
| O=S(=O)(c1ccc(F)cc1)c1snnc1-c1ccccc1 | 15.1 µM |
| Nc1ccc(Oc2cccc(Oc3ccc(N)cc3)c2)cc1 | 1.1 µM |
| O=C(N/N=C/c1cc([N+](=O)[O-])ccc1N1CCNCC1)c1ccc([N+](=O)[O-])cc1 | 8.19 µM |
| N/C(=N\OC(=O)c1ccccc1Cl)c1ccccn1 | 8.87 µM |
| O=C(Nc1ccc(Nc2ccncc2)cc1)c1ccc([N+](=O)[O-])cc1 | 7.22 µM |
| O=C1C(Nc2ccccc2)=C(N2CCCCC2)C(=O)c2ccccc21 | 6.67 µM |
| CN(C)CCCN(C(=O)c1ccc(Cl)s1)c1nc2cc3c(cc2s1)OCO3 | 22.9 µM |
| CC(C)(C)c1ccc(C(=O)N2CCCCCC2=O)cc1 | 1.12 µM |
| CC(=O)Nc1ccc(S(=O)(=O)NC2=C(N3CCN(C)CC3)C(=O)c3ccccc3C2=O)cc1 | 3.65 µM |
| COc1ccccc1-c1cc(C(F)(F)F)nc(S(C)(=O)=O)n1 | 6.81 µM |
| Cn1c(/C=C/c2cccc([N+](=O)[O-])c2)c([N+](=O)[O-])c(=O)n(C)c1=O | 27.8 µM |
| CC(=O)N(C1CC(C)C(C#N)(C#N)C1(C#N)C#N)N(C)C (stereo not drawn) | 9.24 µM |
| Cc1ccc(C(C)C)c(OCc2nn(CC(=O)c3ccc(OC(F)F)cc3)c3[n+]2CCCCC3)c1 | 9.17 µM |
| O=S1(=O)CCC(NC(=S)SCc2ccccc2Br)C1 (stereo not drawn) | 25.6 µM |
| CCSC1(SCC)N=C(N)C2(C#N)C(c3ccc(F)cc3)C12C#N (stereo not drawn) | 14 µM |
| COC1=C(Nc2ccccc2)C(=O)c2ccccc2C1=O | 4.53 µM |
| CN1CCN(c2ccc(NC(=S)NC(=O)c3cccc4ccccc34)cc2)CC1 | 9 µM |

| Compound | AC50 |
| --- | --- |
| COc1ccc(C(C(=O)NC2CCCCC2)N(C(=O)CCl)c2ccc(OC)cc2)cc1 (stereo not drawn) | 9.27 µM |
| CCOC(=O)C(=Cc1ccc(-n2ccnc2)cc1)C(=O)OCC | 9.38 µM |
| CCCCCCCNC(=O)C1(CC2CC(c3ccc(Cl)cc3)=NO2)CCNCC1 (stereo not drawn) | 14 µM |
| O=C(Cn1ncc(Cl)c(Cl)c1=O)NCC1CCCCC1 | 7.39 µM |
| CCN(CC)CCn1nc2c3c(cccc3c1=O)-c1ccccc1-2 | 5.92 µM |
| CS(=O)(=O)N1CCN(c2ccc(NC(=O)c3ccc([N+](=O)[O-])o3)cc2)CC1 | 4.92 µM |
| CC(C)(C)C(=O)Nc1cc2nn(-c3ccccc3)nc2cc1Cl | 0.495 µM |
| CCC(=O)N1CCN(c2ccc(NC(=O)c3ccc([N+](=O)[O-])o3)cc2Cl)CC1 | 6.08 µM |
| C=CCn1c(C)cc(C(=O)Cn2ncc(Cl)c(Cl)c2=O)c1C | 9.97 µM |
| CN(CCC#N)C(=O)COC(=O)c1ccccc1C(=O)c1ccc(Cl)c([N+](=O)[O-])c1 | 10.9 µM |
| Clc1cccc(-c2nc(-c3ccccn3)no2)c1 | 5.92 µM |
| Cc1ccc(-c2nc(C(=O)NCCCN(C)C)cc3c2[nH]c2ccccc23)cc1 | 11.2 µM |
| Cc1ccc(C(=O)N/C(=C\c2ccc(-c3ccc(Br)cc3)o2)C(=O)NCCCN(C)C)cc1 | 6.84 µM |
| COc1cccc(NC(=O)Nc2cccc(C(=O)O)c2)c1 | 2.37 µM |
| COc1cccc(/C=N/Nc2ccc(C(=O)O)cc2)c1O | 0.333 µM |
| COc1ccc(-c2cc(-c3ccccc3)c(C#N)c(S(C)=O)n2)cc1 (stereo not drawn) | 11.8 µM |
| CN(C)CCNc1ccc2nnn3c4ccc(O)cc4c(=O)c1c23 | 4.73 µM |
| Cc1ccc(NC(=O)c2ccc([N+](=O)[O-])o2)cc1S(=O)(=O)N1CCOCC1 | 11.4 µM |
| O=C(Cn1cc(/C=C\[N+](=O)[O-])c2ccccc21)Nc1ccccc1 | 7.46 µM |
| CCOc1ccc(-n2c(C)cc(C(=O)CCl)c2C)cc1 | 4.59 µM |
| CC(C)c1ccc(/C=N/Nc2ccc(C(=O)O)cc2)cc1 | 3.53 µM |
| Cc1ccc(-c2c[n+](Cc3ccc(Cl)cc3)c3n2CCC3)cc1 | 14.2 µM |
| O=C(O)c1ccccc1C(=O)Nc1ccc(Oc2cccc3ccccc23)cc1 | 18.8 µM |

| Compound | AC50 |
| --- | --- |
| O=C(CCl)Nc1cccc(S(=O)(=O)N2CCCCCC2)c1 | 11.8 µM |
| O=C(/C=C/c1ccc(Cl)cc1)c1ccc([N+](=O)[O-])o1 | 5.32 µM |
| COc1cc2c(cc1O)C(SC)=NC(C)(C)C2 | 11.3 µM |
| O=C(COC(=O)c1ccc[nH]c1=O)Nc1ccc(N2CCCCC2)cc1 | 1.03 µM |
| O=C(N/N=C/c1ccc([N+](=O)[O-])o1)c1ccccc1-n1cccc1 | 17.1 µM |
| C=CC[n+]1c(-c2ccc(C)cc2)csc1Nc1ccc(NC(C)=O)cc1 | 1.57 µM |
| O=C(Cn1ncc(Cl)c(Cl)c1=O)c1ccc(Cl)cc1 | 8.81 µM |
| Cc1ccc(OCC(=O)N/N=C/c2ccc([N+](=O)[O-])o2)cc1 | 8.9 µM |
| Cc1ccc(-n2cc(CNCCCn3ccnc3C)c(-c3ccc(F)cc3)n2)cc1 | 7.58 µM |
| CCOC(=O)c1c(C)oc2c1C(=O)c1ccccc1C2=O | 3.18 µM |
| Cc1ccc(C)c(NC(=O)/C(C#N)=C/c2cn(CC(=O)NCc3ccco3)c3ccccc23)c1 | 6.56 µM |
| O=C(Nc1ccccc1N1CCN(C(=O)c2ccccc2)CC1)c1ccc([N+](=O)[O-])o1 | 11.4 µM |
| C=CCSC(=S)NC1CCS(=O)(=O)C1 (stereo not drawn) | 20.7 µM |
| CC(C)N1C/C(=C/c2cccnc2)C(=O)/C(=C/c2cccnc2)C1 | 14.2 µM |
| C1CCC(C(CC2CCCCN2)C2CCCCC2)CC1 (stereo not drawn) | 18.8 µM |
| O=C(CCl)Nc1cccc(-c2cnc3ccccc3n2)c1 | 4.02 µM |
| Cc1c(Cl)c([N+](=O)[O-])nn1Cc1ccc(C(=O)N/N=C\c2cc(Cl)ccc2O)o1 | 3.47 µM |
| O=C(c1ccccc1)C(CN1CCCC1)c1ccccc1 (stereo not drawn) | 5.33 µM |
| CCCC(=O)N1CCN(c2ccc(NC(=O)c3ccc([N+](=O)[O-])o3)cc2Cl)CC1 | 7.65 µM |
| COc1cc(OC)cc(C(=O)N[C@H](C(=O)Nc2nc3ccccc3[nH]2)C(C)C)c1 | 2.44 µM |
| O=C(N/N=C/c1cc(Br)ccc1O)c1ccncc1 | 9.36 µM |
| COc1ccc(C(=O)Nc2ccc(C)cn2)c(OC)c1 | 3.7 µM |
| CCCc1ccc(-c2ccc(/C=C/C(=O)O)cc2)nc1 | 0.039 µM |

| Compound | AC50 |
| --- | --- |
| C/C(=N\NC(=O)C1COc2ccccc2O1)c1ccccn1 (stereo not drawn) | 4.49 µM |
| CCN(CC)CCC(=O)N1C/C(=C/c2ccccc2)C(=O)/C(=C\c2ccccc2)C1 | 4.72 µM |
| Cn1cc(C(=O)CCl)c2ccccc21 | 8.48 µM |
| O=[N+]([O-])c1ccc(S(=O)(=O)CC(CN2CCCCC2)N2CCCCC2)cc1 (stereo not drawn) | 4.88 µM |
| CCOC(=O)N1C(=O)[C@](CC)(c2ccccc2)N1C(=O)OCC | 10 µM |
| CC1CCN(CC2C(=O)O[C@@H]3C[C@@]4(C)CCC[C@H](C)C4=C[C@H]23)CC(C)(C)C1 (stereo partly drawn) | 16.1 µM |
| COC(=O)C1=C(CN2CCCc3ccccc32)NC(=O)NC1c1ccc(F)cc1 (stereo not drawn) | 2.16 µM |
| CCOC(=O)c1cc([N+](=O)[O-])c([N+](=O)[O-])cc1NC(C)=O | 24.2 µM |
| COc1cc(C(=O)Oc2c(CN3CCOCC3)cc(Cl)c3cccnc23)cc(OC)c1OC | 7.56 µM |
| COc1ccc(CNCCC(c2ccc(F)cc2)c2ccc(OC)cc2)cc1 (stereo not drawn) | 9.89 µM |
| COc1ccc2nc(N3CCN(C(=O)c4ccc([N+](=O)[O-])o4)CC3)sc2c1 | 5.81 µM |
| COc1ccccc1NC(=O)c1nc(S(=O)(=O)Cc2ccccc2)ncc1Cl | 8.91 µM |
| O=C(NC1=C(Nc2ccc(Cl)cc2)C(=O)c2ccccc2C1=O)c1ccccc1 | 0.93 µM |
| O=C(CCl)Nc1cccc(Oc2ccccc2)c1 | 8.07 µM |
| O=[N+]([O-])c1cc(S(=O)(=O)N2CCCCCC2)ccc1F | 9.53 µM |
| CC1CCC(C(C)C)C(OC(=O)Cn2c(-c3ccccc3)[n+](C)c3ccccc32)C1 (stereo not drawn) | 2.37 µM |
| O=C(CCl)N1c2ccccc2CCc2ccccc21 | 5.54 µM |
| CN(Cc1ccccc1)C1=CC(=[N+]2CCCCC2)CC(C)(C)C1 | 2.46 µM |
| COc1ccc2oc(C(=O)Nc3ccc(S(=O)(=O)N(C)C4CCN(C)CC4)cc3)c(C)c2c1 | 13 µM |
| COc1ccc(C(=O)/C=C/C(=O)N(CC(=O)NC2CCCCC2)Cc2cccs2)c(O)c1 | 5.53 µM |
| CCN(CC)CCCNC1=C(Cl)C(=O)c2ccccc2C1=O | 1.79 µM |
